The values that follow come from patent EP2945607B1, “COSMETIC OR DERMATOLOGICAL EMULSION COMPRISING A MEROCYANINE AND AN EMULSIFYING SYSTEM CONTAINING AN ALKALI METAL SALT OF A PHOSPHORIC ACID ESTER OF A FATTY ALCOHOL” (L'Oréal, priority 2013, dated 2014).

This series in a line: Color of the formulations: colorimetry of thin films on contrast map (spectro-colorimeter Minolta CM2600D), L*a*b* system. Type of series: physicochemical. The conditions noted are these: result in words; equivalent formulations (2 % merocyanine). The method, then:
Protocol for evaluating the color of the formulations
The color of the formulations was evaluated after preparation of thin films on contrast map. The formulations were deposited within a circle of 2.2 cm of diameter and planed to obtain thicknesses of reproducible deposit. The colorimetric measures were then made by means of a spectro-colorimeter Minolta CM2600D in two points of the film. This operation is twice reproduced, which leads to 4 experimental values by formulation.
The results are expressed in the system (L *, has *, b *) in which L* represents the luminance, a* represents the red-green axis (-a* = green, +a* = red) and b* represents the yellow-blue axis (-b* blue, +b* yellow). So, a* and b* express the shade of the compound.
The difference of color ΔE* was calculated from the variations ΔL*, Δa* et Δb* between the compound (2) and the compound MC11 with the following equation : ((ΔE*))^2 = ((ΔL*))^2 + ((Δa*))^2 + ((Δb*))^2 [formula] • ΔL* = L* formulation with compound MC11 - L* formulation with compound (2) • Δa* = a* formulation with compound MC11 - a* formulation with compound (2) • Δb* = b* formulation with compound MC11 - b* formulation with compound (2)
We consider that the difference of color between the two compounds is significant if ΔE* > 2.

For the molecule `CCOCCOC(=O)/C(C#N)=C1\C=C(NCCCOC)CCC1` [Compound (2), 2-ethoxyethyl (2Z)-cyano{3-[(3-methoxypropyl)amino]cyclohex-2-en-1-ylidene}ethanoate], the “color compared with compound MC11 of WO2008/090066” value is given as “significantly less yellow”.
